In US12673947B2 (Cytosinlab Therapeutics Co., Ltd., priority 2020, dated 2026):

Key:
MV4;11 cells = test: MV4;11 in vitro inhibition of proliferation assay (CellTiter-Glo, 72 hours); assay type: cell-based; conditions: Homo sapiens, MV4-11, 72 h, IC50 class, read-out: Inhibitory activity of cell proliferation MV4;11
In short: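 MV4;11 cells in IMDM/10% FBS, 2000 per well, were exposed to 9-point 3-fold DMSO dilutions from 10 uM (final DMSO 0.3%) in triplicate for 72 hours at 37° C., 5% CO2. Viability was read by CellTiter-Glo luminescence, and IC50 came from a four-parameter fit of inhibition.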

FLT3 = biological target: T1, FLT3 (Homo sapiens, UniProt P36888); test: FLT3 kinase in vitro inhibitory activity experiment (Caliper mobility shift, conversion rate); assay type: biochemical; conditions: IC50 class, read-out: Enzyme activity FLT3
T1 construct: purchased Carna 08-145
T1 sequence (P36888 27-993): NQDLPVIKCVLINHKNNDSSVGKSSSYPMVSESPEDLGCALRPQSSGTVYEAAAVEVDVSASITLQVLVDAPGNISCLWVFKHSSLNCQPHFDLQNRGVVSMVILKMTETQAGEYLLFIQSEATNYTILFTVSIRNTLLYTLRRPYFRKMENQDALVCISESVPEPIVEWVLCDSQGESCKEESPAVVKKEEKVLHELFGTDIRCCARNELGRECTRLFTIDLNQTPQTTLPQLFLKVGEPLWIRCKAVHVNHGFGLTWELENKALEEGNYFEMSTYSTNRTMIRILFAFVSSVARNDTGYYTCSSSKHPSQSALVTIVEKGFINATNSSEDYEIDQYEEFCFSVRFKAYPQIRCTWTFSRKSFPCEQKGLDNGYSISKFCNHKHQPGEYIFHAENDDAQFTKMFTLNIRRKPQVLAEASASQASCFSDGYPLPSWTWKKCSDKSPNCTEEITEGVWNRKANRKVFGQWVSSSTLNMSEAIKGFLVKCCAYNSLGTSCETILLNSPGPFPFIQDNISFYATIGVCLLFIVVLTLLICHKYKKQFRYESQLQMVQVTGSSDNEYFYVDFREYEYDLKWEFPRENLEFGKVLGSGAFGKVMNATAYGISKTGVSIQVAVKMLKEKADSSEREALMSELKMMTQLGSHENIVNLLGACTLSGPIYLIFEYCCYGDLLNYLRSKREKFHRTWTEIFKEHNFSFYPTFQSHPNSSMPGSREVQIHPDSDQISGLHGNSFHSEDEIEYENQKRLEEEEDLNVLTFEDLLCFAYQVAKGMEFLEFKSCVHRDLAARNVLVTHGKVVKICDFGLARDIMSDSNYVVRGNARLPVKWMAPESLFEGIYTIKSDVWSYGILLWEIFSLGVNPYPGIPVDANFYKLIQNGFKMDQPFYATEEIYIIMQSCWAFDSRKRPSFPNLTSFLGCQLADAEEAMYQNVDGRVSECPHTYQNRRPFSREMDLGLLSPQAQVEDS
In short: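 FLT3 was pre-incubated with compound for 10 min at room temperature, then the reaction was started with ATP plus Kinase substrate 2 and run 30 min at room temperature before stop solution. Substrate conversion was read by Caliper mobility shift.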

Row | SMILES | IC50 (MV4;11 cells) [nM] | IC50 (FLT3) [nM]
1 | CCc1nc2c(N)ncc(-c3cnn(-c4ccc(Cl)c(C)c4)c3)c2nc1N[C@@H]1CC[C@H](O)C1 [Compound 279] | 10 to 100 | 10 to 100
2 | CCc1nc2c(N)ncc(-c3cnn(-c4ccnc(C)n4)c3)c2nc1NC1CCOCC1 [Compound 280] | ≤ 10 | ≤ 10
3 | CCc1nc2c(N)ncc(-c3cnn(-c4ccnc(C)n4)c3)c2nc1N[C@H]1CCOC1 [Compound 281] | 10 to 100 | 10 to 100
4 | CCc1nc2c(N)ncc(-c3cnn(C4CCS(=O)(=O)CC4)c3)c2nc1N[C@@H]1CC[C@H](O)C1 [Compound 282] | 10 to 100 | ≤ 10
5 | CCc1nc2c(N)ncc(-c3cnn(C4CCc5cc(F)cc(F)c5CC4)c3)c2nc1N[C@@H]1CC[C@H](O)C1 (some centres unmarked) [Compound 283] | 10 to 100 | ≤ 10
6 | CCc1nc2c(N)ncc(-c3ccc(N4CC5CCC(C4)N5C)c(OC)c3)c2nc1N[C@@H]1CC[C@H](O)C1 [Compound 286, (1S, 3R)-3-((5-amino-3-ethyl-8-(3-methoxy-4-(8-methyl-3,8-diazabicyclo[3.2.1]octyl-3-yl)phenyl)pyridino[3,4-b]pyrazine-2-yl)amino)cyclopentan-1-ol] | ≤ 10 | ≤ 10
7 | CCc1nc2c(N)ncc(-c3ccc(N4CCC(N5CCN(C)CC5)C(C)C4)c(OC)c3)c2nc1NC1CCOCC1 (centres unmarked) [Compound 287, 3-ethyl-8-(3-methoxy-4-(3-methyl-4-(4-methylpiperazine-1-yl)piperidine-1-yl)phenyl)-N2-(tetrahydro-2H-pyran-4-yl)pyridino[3,4-b]pyrazine-2,5-diamine] | 10 to 100 | ≤ 10
8 | CCc1nc2c(N)ncc(-c3ccc(-c4ccnc(C)n4)c(OC)c3)c2nc1N[C@@H]1CC[C@H](O)C1 [Compound 288, (1S,3R)-3-((5-amino-3-ethyl-8-(3-methoxy-4-(2-methylpyrimidine-4-yl)phenyl)pyrido[3,4-b]pyrazine-2-yl)amino)cyclopentan-1-ol] | 10 to 100 | ≤ 10
9 | CCc1nc2c(N)ncc(-c3cnn(-c4ccc(C5CCN(C)CC5)cc4)c3)c2nc1N[C@@H]1CC[C@H](O)C1 [Compound 290] | ≤ 10 | ≤ 10
10 | CCc1nc2c(N)ncc(-c3cnn(-c4ccc(Cl)cc4)c3)c2nc1N[C@@H]1CC[C@H](O)C1 [Compound 291] | 10 to 100 | ≤ 10
11 | CCc1nc2c(N)ncc(-c3cnn(-c4ccc(OC5CCN(C)CC5)cc4)c3)c2nc1N[C@@H]1CC[C@H](O)C1 [Compound 292, (1S, 3R)-3-((5-amino-3-ethyl-8-(1-(4-((1-methylpiperidin-4-yl)oxy)phenyl)-1H-pyrazol-4-yl)pyridino[3,4-b]pyrazin-2-yl)amino)cyclopentan-1-ol] | 100 to 500 | > 500
12 | CCc1nc2c(N)ncc(-c3ccc(N4CCC(N5CC6CCC(C5)N6C)CC4)c(OC)c3)c2nc1NC1CCOCC1 [Compound 293, 3-ethyl-8-(3-methoxy-4-(4-(8-methyl-3,8-diazabicyclo[3.2.1]octan-3-yl)piperidin-1-yl)phenyl)-N2-(tetrahydro-2H-pyran-4-yl)pyridino [3,4-b]pyrazin-2,5-diamine] | 10 to 100 | ≤ 10
13 | CCc1nc2c(N)ncc(-c3cnn(-c4ncccn4)c3)c2nc1N[C@@H]1CC[C@H](O)C1 [Compound 294] | ≤ 10 | ≤ 10
14 | CCc1nc2c(N)ncc(-c3cnn(-c4cncnc4)c3)c2nc1N[C@@H]1CC[C@H](O)C1 [Compound 295] | ≤ 10 | ≤ 10
15 | CCc1nc2c(N)ncc(-c3cnn(-c4ccn(C)c(=O)c4)c3)c2nc1N[C@@H]1CC[C@H](O)C1 [Compound 296] | ≤ 10 | ≤ 10
16 | CCc1nc2c(N)ncc(-c3cnn(-c4cc(C)n(C)c(=O)c4)c3)c2nc1N[C@@H]1CC[C@H](O)C1 [Compound 299] | 10 to 100 | ≤ 10
17 | CCc1nc2c(N)ncc(-c3cnn(-c4ccc(=O)n(C)c4)c3)c2nc1N[C@@H]1CC[C@H](O)C1 [Compound 301] | ≤ 10 | ≤ 10
18 | CCc1nc2c(N)ncc(-c3cnn(-c4cccnc4)c3)c2nc1N[C@@H]1CC[C@H](O)C1 [Compound 302] | ≤ 10 | ≤ 10
19 | CCc1nc2c(N)ncc(-c3cnn(-c4ccc(C)cc4)c3)c2nc1N[C@@H]1CC[C@H](O)C1 [Compound 303] | 10 to 100 | ≤ 10

Row | SMILES | IC50 (MV4;11 cells) [nM] | IC50 (FLT3) [nM]
20 | CCc1nc2c(N)ncc(-c3cnn(-c4cc(C)ncn4)c3)c2nc1N[C@@H]1CC[C@H](O)C1 [Compound 304] | ≤ 10 | ≤ 10
21 | CCc1nc2c(N)ncc(-c3cnn(-c4ccnnc4)c3)c2nc1N[C@@H]1CC[C@H](O)C1 [Compound 306] | ≤ 10 | ≤ 10
22 | CCc1nc2c(N)ncc(-c3cnn(-c4ccnc(C(C)(C)O)c4)c3)c2nc1N[C@@H]1CC[C@H](O)C1 [Compound 308] | ≤ 10 | ≤ 10
23 | CCc1nc2c(N)ncc(-c3cnn(-c4ccnc(OC)c4)c3)c2nc1N[C@@H]1CC[C@H](O)C1 [Compound 309] | ≤ 10 | ≤ 10
24 | CCc1nc2c(N)ncc(-c3cnn(-c4ccnc(N5CCCC5)c4)c3)c2nc1N[C@@H]1CC[C@H](O)C1 [Compound 310] | 10 to 100 | ≤ 10
25 | CCc1nc2c(N)ncc(-c3cnn(-c4ccc(CNC)cc4)c3)c2nc1N[C@@H]1CC[C@H](O)C1 [Compound 311] | ≤ 10 | ≤ 10
26 | CCc1nc2c(N)ncc(-c3ccc(-c4cnn(C5CCN(C)CC5)c4)c(OC)c3)c2nc1N[C@@H]1CC[C@H](O)C1 [Compound 312, (1S, 3R)-3-((5-amino-3-ethyl-8-(3-methoxy-4-(1-(1-methylpiperidin-4-yl)-1H-pyrazol-4-yl)phenyl)pyridino [3,4-b]pyrazin-2-yl)amino) cyclopentan-1-ol] | 10 to 100 | ≤ 10
27 | CCc1nc2c(N)ncc(-c3ccc(-c4ccc(C5CCN(C)CC5)cc4)c(OC)c3)c2nc1N[C@@H]1CC[C@H](O)C1 [Compound 313] | 10 to 100 | ≤ 10
28 | CCc1nc2c(N)ncc(-c3ccc(N4CCC(N5CCCN(C)CC5)CC4)c(OC)c3)c2nc1NC1CCOCC1 [Compound 314] | 10 to 100 | 10 to 100
29 | CCc1nc2c(N)ncc(-c3ccc(N4CCC(N5CCN(CC)CC5)CC4)c(OC)c3)c2nc1NC1CCOCC1 [Compound 315, 3-ethyl-8-(4-(4-(4-ethylpiperazine-1-yl)piperidine-1-yl)-3-methoxyphenyl)-N2-(tetrahydro-2H-pyran-4-yl)pyridino[3,4-b]pyrazine-2,5-diamine] | 10 to 100 | ≤ 10
30 | CCc1nc2c(N)ncc(-c3cnn(-c4ccnc(CO)c4)c3)c2nc1N[C@@H]1CC[C@H](O)C1 [Compound 318] | ≤ 10 | ≤ 10
31 | CCc1nc2c(N)ncc(-c3ccc(N4CCC(N5CC6CCC(C5)N6)CC4)c(OC)c3)c2nc1NC1CCOCC1 [Compound 319, 8-(4-(4-(3,8-diazabicyclo[3.2.1]octane-3-yl)piperidin-1-yl)-3-methoxyphenyl)-3-ethyl-N2-(tetrahydro-2H-pyran-pyridin-4-yl)pyridino [3,4-b]pyrazine-2,5-diamine] | 10 to 100 | ≤ 10
32 | CCc1nc2c(N)ncc(-c3ccc(N4CCC(N5CCN(CC(F)F)CC5)CC4)c(OC)c3)c2nc1NC1CCOCC1 [Compound 321] | 10 to 100 | ≤ 10
33 | CCc1nc2c(N)ncc(-c3ccc(N4CCC(N5CCN(C)CC5)CC4C)c(OC)c3)c2nc1NC1CCOCC1 (centres unmarked) [Compound 322] | 10 to 100 | ≤ 10
34 | CCc1nc2c(N)ncc(-c3ccc(N4CCC(N5CC[C@@H](NC)C5)CC4)c(OC)c3)c2nc1NC1CCOCC1 [Compound 323] | 10 to 100 | ≤ 10
35 | CCc1nc2c(N)ncc(-c3ccc(N4CCC(N5CC[C@H](NC)C5)CC4)c(OC)c3)c2nc1NC1CCOCC1 [Compound 324] | 10 to 100 | ≤ 10
36 | CCc1nc2c(N)ncc(-c3ccc(N4CCC(N5CCN(CC)CC5)CC4)c(OC)c3)c2nc1N[C@H]1CCOC1 [Compound 325] | 10 to 100 | ≤ 10
37 | CCc1nc2c(N)ncc(-c3ccc(N4CCC(N5CCN(CCC#N)CC5)CC4)c(OC)c3)c2nc1NC1CCOCC1 [Compound 326] | 10 to 100 | 10 to 100
